Measured values as given in publication PMC12373846, “Hemoglobin as a pseudoperoxidase and drug target for oxidative stress-related diseases” (Signal Transduction and Targeted Therapy, 2025).

Tested on: APP/PS1 mice
Assay: Immunohistochemistry of hippocampus, APP/PS1 mice
Assay type: in vivo, mouse
Method: For an animal model of AD, both sexes of 10- to 18-month-old APP/PS1 mice were maintained and used as previously described.[76],[77] To test the effects of novel H2O2-decomposing enhancers in the AD model, the mice were treated by i.p. injection with KDS12008 (3 mg/kg/day), KDS12017 (3 mg/kg/day), or KDS12025 (3 or 10 mg/kg/day) once per day for 1 or 2 weeks, depending on the experimental protocol. All drugs were dissolved in 200 μl of saline, and the amount of each drug was calculated on the basis of the weight (kg) of the mouse. Moreover, KDS12025 (3 mg/kg/day) was orally administered to the AD model for 2 weeks ad libitum.
The mice were deeply anesthetized with vaporized 1% isoflurane and placed into stereotaxic frames (RWD Life Science, China). Following an incision on the midline of the scalp, a hole was drilled into the skull above the hippocampus. AAV-GFAP104-GFP or AAV-GFAP104-DTR-GFP was bilaterally microinjected into the hippocampal CA1 region (AP, −2.0 mm; ML, ±1.5 mm; DV, −1.65 mm from the bregma). Diphtheria toxin (2 mg/ml) was administered for 16 days as previously described.[77] For shRNA knockdown, AAV-pSicoR-Hbβ-shRNA-mCherry or AAV-pSicoR-Sc-shRNA-mCherry was microinjected into the same coordinate system. A total of 0.8 µl of the virus was injected via a syringe pump (KD Scientific, USA). The injection procedures were implemented before 5 weeks of the experiments. For cell type-specific knockdown, AAV-pSico-Hbβ-shRNA-GFP or AAV-pSico-Sc-shRNA-GFP was combined with either AAV-CaMKII-Cre-mCherry for neuronal targeting or AAV-GFAP-Cre-mCherry for astrocyte targeting. The viruses were bilaterally injected into the hippocampus and substantia nigra via the same stereotaxic coordinates and injection procedures. All viruses used in this study were produced at the Institute for Basic Science virus facility (IBS virus facility, Korea). To investigate the effects of 0.1 mg/kg/day KDS12025, GiD mice were injected with diphtheria toxin (2 mg/ml) daily for 16 days. Concurrently, KDS12025 was administered ad libitum (0.1 mg/kg/day) during the same period.
The mice were deeply anesthetized with 2% isoflurane and positioned on the operating table. After the abdomen was opened and the heart was exposed, the […] were perfused with saline, followed by 4% paraformaldehyde (PFA) in 0.1 M PBS. The mice were decapitated, and the brains were excised from the skull. Excised brains were postfixed in 4% PFA overnight at 4 °C and dehydrated in 30% sucrose for 48 h. Coronal hippocampal sections were cut at 30 µm thickness with a cryostat and stored in storage solution. For the ALS experiments, lumbar spinal cords (L2–L5) were also carefully dissected and immediately immersed in 4% PFA for postfixation. The sections were fully washed in 0.1 M PBS and incubated for 1 h in blocking solution (0.3% Triton X-100, 2% donkey and goat serum in 0.1 M PBS). Next, a mixture of primary antibodies in the blocking solution was used for immunostaining on a shaker overnight at 4 °C. The sections were washed in PBS three times. After washing, the sections were incubated with the corresponding fluorescent secondary antibodies for 1 h at RT. DAPI staining was performed by adding a DAPI solution (1:2000) during the second washing step. After the washing step was complete, the sections were mounted on cover slides with mounting medium. A series of fluorescence images were obtained with an LSM900 (Zeiss, Germany) confocal microscope or Lattice SIM Elyra 7 (Zeiss, Germany). The 15–22 μm Z stack images in 1–2 μm steps were processed for image analysis, which was performed via the ImageJ (NIH, US) and ZEN digital imaging for light microscopy blue system (Zeiss, Germany) programs.

SMILES: CNc1ccc(NCCc2ccccc2OC)cc1.Cl [KDS12025, N^1-(2-methoxyphenethyl)-N^4-methylbenzene-1,4-diamine hydrochloride salt]
- GFAP-positive area (APP+ScRNA+KDS12025, Fig. 6i): 142.4±8.715
- GFAP intensity (APP+ScRNA+KDS12025, Fig. 6j): 124.3±1.773
- Hbβ intensity in GFAP-positive areas (APP+ScRNA+KDS12025, Fig. 6h): 10.10±0.4531
- Sholl analysis, sum of intersections (APP+ScRNA+KDS12025, Fig. S16e): 142.4±8.715
- Sholl analysis, ending radius (APP+ScRNA+KDS12025, Fig. S16f): 54.48±2.319
- Sholl analysis, number of intersections (APP+ScRNA+KDS12025, Fig. S16g): 4.984±0.7027
- GFAP-positive area (APP+shHbβ+KDS12025, Fig. 6i): 234.3±16.93
- GFAP intensity (APP+shHbβ+KDS12025, Fig. 6j): 146.8±2.262
- Hbβ intensity in GFAP-positive areas (APP+shHbβ+KDS12025, Fig. 6h): 6.275±0.4473
- Sholl analysis, sum of intersections (APP+shHbβ+KDS12025, Fig. S16e): 234.3±16.93
- Sholl analysis, ending radius (APP+shHbβ+KDS12025, Fig. S16f): 100.4±6.075
- Sholl analysis, number of intersections (APP+shHbβ+KDS12025, Fig. S16g): 5.314±0.9626
- Hbβ intensity in GFAP-positive areas (APP+shHbβ::CaMKII+KDS12025, Fig. 6m): 110.5±1.59
- GFAP-positive area (APP+shHbβ::CaMKII+KDS12025, Fig. 6n): 55.98±5.45
- GFAP intensity (APP+shHbβ::CaMKII+KDS12025, Fig. 6o): 131.4±3.56
- Sholl analysis, sum of intersections (APP+shHbβ::CaMKII+KDS12025, Fig. S17b): 42.1±3.9
- Sholl analysis, ending radius (APP+shHbβ::CaMKII+KDS12025, Fig. S17c): 80.3±6.8
- Hbβ intensity in GFAP-positive areas (APP+shHbβ::GFAP+KDS12025, Fig. 6m): 87.46±1.26
- GFAP-positive area (APP+shHbβ::GFAP+KDS12025, Fig. 6n): 134.3±10.91
- GFAP intensity (APP+shHbβ::GFAP+KDS12025, Fig. 6o): 152.1±5.50
- Sholl analysis, sum of intersections (APP+shHbβ::GFAP+KDS12025, Fig. S17b): 57.9±3.7
- Sholl analysis, ending radius (APP+shHbβ::GFAP+KDS12025, Fig. S17c): 109.8±5.4
